Data as given in US20160264536A1, “HETEROCYCLIC COMPOUND” (Takeda Pharmaceutical Company Limited, priority 2013, published 2016).

Molecular target: T1, human PDE2A3 enzyme (Homo sapiens, UniProt O00408)
T1 construct: Human PDE2A3 full-length gene was transduced into Sf9; His-tag; made in house; host or cells: Sf9 insect cells
Assay: PDE enzyme inhibitory assay (SPA, [3H]cGMP substrate)
Type: biochemical
Details: compound 1 μM, substrate [3H]cGMP 77 nM, read-out: inhibitory rate (%) (1 μM)
Procedure: PDE Enzyme Inhibitory Assay
Human PDE2A3 full-length gene was transduced into Sf9, and human PDE2A3 enzyme was purified by His-tag affinity column and gel filtration. The enzyme was stored at −70° C. until use. PDE activity was measured by using a SPA (Scintillation Proximity Assay) (GE Healthcare). To evaluate the inhibitory activity of the compound, 10 μl of serial diluted compounds were reacted with 20 μl of PDE enzyme in assay buffer (50 mM HEPES-NaOH, 8.3 mM MgCl2, 1.7 mM EGTA, 0.1% BSA (pH 7.4)) for 30 min at room temperature. Final concentration of DMSO in the reaction solution was 1%. Compounds were tested in duplicate in 96-well half-area plates (Corning) or 384-well OptiPlate (PerkinElmer). To start the reaction, 10 μl of substrate [^3H]cGMP (final concentration 77 nM, PerkinElmer) was added to a total volume of 40 μl. After reaction for 60 min at room temperature, 20 μl of 20 mg/mL yttrium SPA beads containing zinc sulfate was added to terminate the reaction. After being settled for further 1 hour, the assay plates were counted in a scintillation counter (PerkinElmer) to allow calculation of inhibition rate. Inhibition rate was calculated on the basis of 0% control wells with enzyme and DMSO, and 100% control wells without enzyme.

T1 sequence (O00408 whole entry): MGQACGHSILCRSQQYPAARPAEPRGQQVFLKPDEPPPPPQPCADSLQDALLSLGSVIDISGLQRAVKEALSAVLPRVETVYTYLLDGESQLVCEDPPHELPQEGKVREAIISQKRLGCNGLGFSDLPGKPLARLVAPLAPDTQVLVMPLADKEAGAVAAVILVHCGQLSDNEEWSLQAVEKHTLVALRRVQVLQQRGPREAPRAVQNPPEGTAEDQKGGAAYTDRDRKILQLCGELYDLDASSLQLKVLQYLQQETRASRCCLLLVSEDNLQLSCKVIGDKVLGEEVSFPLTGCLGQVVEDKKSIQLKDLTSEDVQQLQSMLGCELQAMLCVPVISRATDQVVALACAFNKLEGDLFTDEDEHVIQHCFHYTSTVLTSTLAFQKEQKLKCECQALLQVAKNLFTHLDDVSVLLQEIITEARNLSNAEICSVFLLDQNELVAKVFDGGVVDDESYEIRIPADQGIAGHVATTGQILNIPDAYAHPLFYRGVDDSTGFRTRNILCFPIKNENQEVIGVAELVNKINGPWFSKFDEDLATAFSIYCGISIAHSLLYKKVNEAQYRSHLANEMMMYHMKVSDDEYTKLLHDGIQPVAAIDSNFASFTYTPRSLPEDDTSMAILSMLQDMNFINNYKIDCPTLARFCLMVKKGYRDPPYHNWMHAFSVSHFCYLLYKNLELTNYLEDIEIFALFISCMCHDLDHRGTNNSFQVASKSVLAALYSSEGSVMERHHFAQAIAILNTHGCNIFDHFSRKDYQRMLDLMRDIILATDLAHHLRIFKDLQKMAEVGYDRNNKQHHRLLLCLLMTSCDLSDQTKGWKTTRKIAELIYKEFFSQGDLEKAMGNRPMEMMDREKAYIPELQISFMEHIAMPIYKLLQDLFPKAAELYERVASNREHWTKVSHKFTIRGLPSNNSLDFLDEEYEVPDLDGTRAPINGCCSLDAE

Row | Structure (SMILES) | inhibition at 1 µM [%]
1 | COC[C@@H](NC(=O)c1cc(=O)[nH]c(N(C)C)n1)c1ccc(OC(F)(F)F)cc1 [Example 20, 2-(dimethylamino)-N-((1S)-2-methoxy-1-(4-(trifluoromethoxy)phenyl)ethyl)-6-oxo-1,6-dihydropyrimidine-4-carboxamide] | 98
2 | COC[C@@H](NC(=O)c1cc(=O)[nH]c(N(C)C)n1)c1ccc(OC(F)(F)F)c(F)c1 [Example 33, 2-(dimethylamino)-N-((1S)-1-(3-fluoro-4-(trifluoromethoxy)phenyl)-2-methoxyethyl)-6-oxo-1,6-dihydropyrimidine-4-carboxamide] | 99
3 | COC[C@@H](NC(=O)c1cc(=O)[nH]c(N2CC[C@H](OC)C2)n1)c1ccc(OC(F)(F)F)cc1 [Example 45, 2-((3S)-3-methoxypyrrolidin-1-yl)-N-((1S)-2-methoxy-1-(4-(trifluoromethoxy)phenyl)ethyl)-6-oxo-1,6-dihydropyrimidine-4-carboxamide] | 97
4 | COC[C@@H](NC(=O)c1cc(=O)[nH]c(N2CCCC2)n1)c1ccc(OC(F)(F)F)cc1 [Example 52, N-((1S)-2-methoxy-1-(4-(trifluoromethoxy)phenyl)ethyl)-6-oxo-2-(pyrrolidin-1-yl)-1,6-dihydropyrimidine-4-carboxamide] | 102
5 | COC[C@@H](NC(=O)c1cc(=O)[nH]c(N2CC(OC)C2)n1)c1ccc(OC(F)(F)F)cc1 [Example 55, 2-(3-methoxyazetidin-1-yl)-N-((1S)-2-methoxy-1-(4-(trifluoromethoxy)phenyl)ethyl)-6-oxo-1,6-dihydropyrimidine-4-carboxamide] | 98
6 | COC[C@@H](NC(=O)c1cc(=O)[nH]c(N2CCCC2)n1)c1ccc(OC(F)(F)F)c(F)c1 [Example 61, N-((1S)-1-(3-fluoro-4-(trifluoromethoxy)phenyl)-2-methoxyethyl)-6-oxo-2-(pyrrolidin-1-yl)-1,6-dihydropyrimidine-4-carboxamide] | 98
7 | COC[C@@H](NC(=O)c1cc(=O)[nH]c(N2CC[C@H](OC(C)C)C2)n1)c1ccc(OC(F)(F)F)cc1 [Example 67, 2-((3S)-3-isopropoxypyrrolidin-1-yl)-N-((1S)-2-methoxy-1-(4-(trifluoromethoxy)phenyl)ethyl)-6-oxo-1,6-dihydropyrimidine-4-carboxamide] | 100
8 | COC[C@@H](NC(=O)c1cc(=O)[nH]c(N2CC3CC(C2)O3)n1)c1ccc(OC(F)(F)F)c(F)c1 [Example 73, N-((1S)-1-(3-fluoro-4-(trifluoromethoxy)phenyl)-2-methoxyethyl)-2-(6-oxa-3-azabicyclo[3.1.1]hept-3-yl)-6-oxo-1,6-dihydropyrimidine-4-carboxamide] | 99
9 | CCN(C)c1nc(C(=O)N[C@H](COC)c2ccc(OC(F)(F)F)c(F)c2)cc(=O)[nH]1 [Example 76, 2-(ethyl(methyl)amino)-N-((1S)-1-(3-fluoro-4-(trifluoromethoxy)phenyl)-2-methoxyethyl)-6-oxo-1,6-dihydropyrimidine-4-carboxamide] | 101
10 | COC[C@@H](NC(=O)c1cc(=O)[nH]c(C(C)(C)C)n1)c1ccc(OC(F)(F)F)c(F)c1 [Example 80, 2-tert-butyl-N-((1S)-1-(3-fluoro-4-(trifluoromethoxy)phenyl)-2-methoxyethyl)-6-oxo-1,6-dihydropyrimidine-4-carboxamide] | 94
11 | COC[C@@H](NC(=O)c1cc(=O)[nH]c(C2CC2)n1)c1ccc(OC(F)(F)F)c(F)c1 [Example 81, 2-cyclopropyl-N-((1S)-1-(3-fluoro-4-(trifluoromethoxy)phenyl)-2-methoxyethyl)-6-oxo-1,6-dihydropyrimidine-4-carboxamide] | 93
12 | COC[C@@H](NC(=O)c1cc(=O)[nH]c(C2=CCCC2)n1)c1ccc(OC(F)(F)F)c(F)c1 [Example 83, 2-(cyclopent-1-en-1-yl)-N-((1S)-1-(3-fluoro-4-(trifluoromethoxy)phenyl)-2-methoxyethyl)-6-oxo-1,6-dihydropyrimidine-4-carboxamide] | 98
13 | COC[C@@H](NC(=O)c1cc(=O)[nH]c(C2(C)CC2)n1)c1ccc(OC(F)(F)F)c(F)c1 [Example 103, N-((1S)-1-(3-fluoro-4-(trifluoromethoxy)phenyl)-2-methoxyethyl)-2-(1-methylcyclopropyl)-6-oxo-1,6-dihydropyrimidine-4-carboxamide] | 108

More lines, now with the values ahead:

Row | inhibition at 1 µM [%] | Structure (SMILES)
14 | 99 | CC(C)(O)C(NC(=O)c1cc(=O)[nH]c(N2CCCC2)n1)c1ccc(OC(F)(F)F)c(F)c1 (stereo not drawn) [Example 62, N-(1-(3-fluoro-4-(trifluoromethoxy)phenyl)-2-hydroxy-2-methylpropyl)-6-oxo-2-(pyrrolidin-1-yl)-1,6-dihydropyrimidine-4-carboxamide]
15 | 98 | COC[C@@H](NC(=O)c1cc(=O)[nH]c(-c2ccccc2)n1)c1ccc(OC(F)(F)F)c(F)c1 [Example 87, N-((1S)-1-(3-fluoro-4-(trifluoromethoxy)phenyl)-2-methoxyethyl)-6-oxo-2-phenyl-1,6-dihydropyrimidine-4-carboxamide]
16 | 92 | COC[C@@H](NC(=O)c1cc(=O)[nH]c(-c2ccccn2)n1)c1ccc(OC(F)(F)F)c(F)c1 [Example 88, N-((1S)-1-(3-fluoro-4-(trifluoromethoxy)phenyl)-2-methoxyethyl)-6-oxo-2-(pyridin-2-yl)-1,6-dihydropyrimidine-4-carboxamide]
17 | 104 | CC(C)(C)c1nc(C(=O)N[C@@H](c2ccc(OC(F)(F)F)c(F)c2)C(C)(C)O)cc(=O)[nH]1 [Example 95, 2-tert-butyl-N-(1-(3-fluoro-4-(trifluoromethoxy)phenyl)-2-hydroxy-2-methylpropyl)-6-oxo-1,6-dihydropyrimidine-4-carboxamide]
18 | 94 | CC(C)(O)[C@@H](NC(=O)c1cc(=O)[nH]c(C2CC2)n1)c1ccc(OC(F)(F)F)c(F)c1 [Example 96, 2-cyclopropyl-N-((1S)-1-(3-fluoro-4-(trifluoromethoxy)phenyl)-2-hydroxy-2-methylpropyl)-6-oxo-1,6-dihydropyrimidine-4-carboxamide]
19 | 102 | CC(C)(O)[C@@H](NC(=O)c1cc(=O)[nH]c(-c2ccccn2)n1)c1ccc(OC(F)(F)F)c(F)c1 [Example 102, N-((1S)-1-(3-fluoro-4-(trifluoromethoxy)phenyl)-2-hydroxy-2-methylpropyl)-6-oxo-2-(pyridin-2-yl)-1,6-dihydropyrimidine-4-carboxamide]
20 | 104 | COC[C@@H](NC(=O)c1cc(=O)[nH]c(-c2ccc(OC)cn2)n1)c1ccc(OC(F)(F)F)c(F)c1 [Example 105, N-((1S)-1-(3-fluoro-4-(trifluoromethoxy)phenyl)-2-methoxyethyl)-2-(5-methoxypyridin-2-yl)-6-oxo-1,6-dihydropyrimidine-4-carboxamide]
21 | 97 | COC[C@@H](NC(=O)c1cc(=O)[nH]c(-c2cccs2)n1)c1ccc(OC(F)(F)F)c(F)c1 [Example 107, N-((1S)-1-(3-fluoro-4-(trifluoromethoxy)phenyl)-2-methoxyethyl)-6-oxo-2-(2-thienyl)-1,6-dihydropyrimidine-4-carboxamide]
